From patent US20230286973A1, “PROTEIN SECRETION INHIBITORS” (KEZAR LIFE SCIENCES, priority 2020, published 2023) come the findings set out here.

Usually EC50 stands for the concentration giving half of the maximal effect.

Data set [1] concerns PD1-ss+10aa/Gaussia Luciferase. In words: Dox-Induced PD1-ss-Gluc Assay. The format is cell-based. Conditions: 24 hr Dox induction, 293FRT/TO cells, read-out: 24 hr Dox Inducible PD1ssGluc 293FRT/TO: Mean IC50. A digest of the protocol:
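The cell line was made by transfecting Flp-In 293 T-REx cells with a PD1 signal sequence+10aa–Gaussia luciferase fusion under T-REx control and selecting with hygromycin and blasticidin. Cells were seeded, and next day compound plus doxycycline was added at 37 °C, 5% CO2.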

For data set [2], the system named is TNFα-FL/Gaussia Luciferase. Kind of data set: Dox Induced TNFα-FL-Gluc Assay. The format is cell-based. Conditions: for IC50: 24 hr Dox induction, 293FRT/TO cells, read-out: 24 hr Dox Inducible TNFaFLGluc 293FRT/TO: Mean IC50; for 24 hr Dox Inducible TNFaFLGluc 293FRT/TO: TNF/PD1: ratio of TNFaFLGluc IC50 to PD1ssGluc IC50. A digest of the protocol: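 Compound was added with doxycycline to cells plated a day earlier, incubating at 37° C under 5% CO2. The reporter line is 293 T-REx expressing a TNFα (1-233)–Gaussia luciferase fusion under tetracycline-regulated control.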

For data set [3], the system named is HER3-ss+4aa/Gaussia Luciferase. Kind of data set: Dox-Induced Her3-ss-Gluc Assay. The format is cell-based. Conditions: 24 hr Dox induction, 293FRT/TO cells, read-out: 24 hr Dox Inducible Her3(ss + 4)Gluc 293FRT/TO: Mean IC50. The essentials:
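Compounds were diluted in DMSO/media containing doxycycline. They were added to Flp-In 293 T-REx cells plated the previous day, then incubated at 37 °C under 5% CO2. These cells stably express, under T-REx control, Gaussia luciferase fused to the HER3 signal sequence plus 4 amino acids.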

The subject of data set [4] is IL-2-FL/Gaussia Luciferase. In words: Dox Induced IL2-FL-Gluc Assay. The format is cell-based. The settings on record: for IC50: 24 hr Dox induction, 293FRT/TO cells, read-out: 24 hr Dox Inducible IL2FLGluc 293FRT/TO: Mean IC50; for 24 hr Dox Inducible IL2FLGluc 293FRT/TO: IL2/PD1: ratio of IL2FLGluc IC50 to PD1ssGluc IC50. The essentials: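 Compounds in DMSO/medium with doxycycline were applied to a 293 T-REx stable line expressing an IL-2 (aa 1-153)–Gaussia luciferase fusion under tetracycline-regulated control, cells seeded one day earlier; incubation at 37 °C, 5% CO2. Structures drawn without stereochemistry were tested as stereoisomer mixtures.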

Data set [5] has as its system multiple myeloma cell line NCI-H929. Kind of data set: H929 Cell Viability Assay. The format is cell-based, human. The settings on record: Homo sapiens, NCI-H929, 48 h, NCI-H929 cells, Celltiter-Glo. A digest of the protocol: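 Luminescent CellTiter-Glo read-out of viability after a 48 h exposure (37° C, 5% CO2) of NCI-H929 myeloma cells to compound dilutions in RPMI 1640 plus 10% FBS. Data for structures drawn without stereochemistry refer to stereoisomer mixtures.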
(Cellular ATP, detected with luciferase, serves as a proxy for viable cell number.)

The subject of data set [6] is multiple myeloma cell line U266B1. In words: U266 Cell Viability Assay. The settings on record: Homo sapiens, U-266, 48 h, U266B1 cells, Celltiter-Glo. The format is cell-based, human. A digest of the protocol:
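CellTiter-Glo luminescence was read after a 48 h compound exposure (37 °C, 5% CO2) of human U266B1 myeloma cells grown in 10% FBS-supplemented RPMI 1640. Data for structures shown without defined stereochemistry refer to stereoisomer mixtures.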

A short description of data set [7]: Liver Microsome Stability Assay (rat). Conditions: rat liver microsomes, with NADPH, 1.0 uM compound. In general terms: Microsomes from liver hold many membrane-bound enzymes, among them those of drug oxidation.
Description: (§1) Stability of a compound was assessed in the presence of liver microsomes from various sources—mouse, rat, monkey and human liver microsomes. 1.0 uM compound, 0.4% DMSO in 0.1 M Potassium Phosphate with 1.0 mg/mL liver microsomes, were incubated at 37° C. with or without 1 mM NADPH. The samples were quenched at 0, and 30 minutes.
Data set [8] is described as follows: Liver Microsome Stability Assay (mouse). The settings on record: mouse liver microsomes, with NADPH, 1.0 uM compound.
Description: as §1
Data set [9] can be described thus: Liver Microsome Stability Assay (human). Conditions: human liver microsomes, with NADPH, 1.0 uM compound.
Description: as §1
Data set [10] can be described thus: Liver Microsome Stability Assay (monkey). The settings on record: monkey liver microsomes, with NADPH, 1.0 uM compound.
Description: as §1
[11] abbreviates: '<=>' given where both are I.A.

Read-outs that look alike come from different tables or passages of the source. A value given as a limit tells only on which side of the number the result lay.

Turning to `COc1ccc(O[C@H]2CCC[C@H](c3csc(NC(=O)c4cccn4Cc4ccncc4)n3)C2)nc1` [Compound E41, N-(4-((1S,3S)-3-((5-methoxypyridin-2-yl)oxy)cyclohexyl)thiazol-2-yl)-1-(pyridin-4-ylmethyl)-1H-pyrrole-2-carboxamide], the IC50 in data set [1] (mean) was found to be 301 nM; in [2] (mean), 1560 nM; in [3] (mean), 570 nM; in data set [4] (mean), 538 nM. In data set [2] (setting [11]), the “24 hr Dox Inducible TNFaFLGluc 293FRT/TO: TNF/PD1” value is listed as 5.2. The “24 hr Dox Inducible IL2FLGluc 293FRT/TO: IL2/PD1” value in data set [4] (setting [11]) was found to be 1.8. For the same compound, the EC50 in data set [5] worked out at 7740 nM; in data set [6], 14400 nM. For the same compound, the “Liver Microsome Stability (Multiple Species): Rat - % Remaining after 30 min w/NADPH” value in data set [7] was determined as 0.61%. Further, the “Liver Microsome Stability (Multiple Species): Mouse - % Remaining after 30 min w/NADPH” value in data set [8] is reported as 0.41%. Further, the “Liver Microsome Stability (Multiple Species): Human - % Remaining after 30 min w/NADPH” value in data set [9] amounted to 0.33%. Besides, the “Liver Microsome Stability (Multiple Species): Monkey - % Remaining after 30 min w/NADPH” value in data set [10] worked out at 0.34%.

As to `Cc1cc(C(=O)Nc2nc([C@H]3CCCN3c3ccccc3)cs2)n(Cc2ccncc2)c1` [Compound A115, (R)-4-methyl-N-(4-(1-phenylpyrrolidin-2-yl)thiazol-2-yl)-1-(pyridin-4-ylmethyl)-1H-pyrrole-2-carboxamide], the IC50 in data set [1] worked out at 41.5 nM; in [2], 587 nM; in [3], 89.3 nM; in [4], 122 nM. Further, the “24 hr Dox Inducible TNFaFLGluc 293FRT/TO: TNF/PD1” value in [2] amounted to 14.1. For the same compound, the “24 hr Dox Inducible IL2FLGluc 293FRT/TO: IL2/PD1” value in data set [4] amounted to 2.9. In addition, the 50% effective concentration (EC50) in [5] worked out at 2000 nM; in data set [6] it was 7270 nM. For the same compound, the “Liver Microsome Stability (Multiple Species): Rat - % Remaining after 30 min w/NADPH” value in data set [7] stood at 9.02%. Also, the “Liver Microsome Stability (Multiple Species): Mouse - % Remaining after 30 min w/NADPH” value in [8] worked out at 3.39%. The “Liver Microsome Stability (Multiple Species): Human - % Remaining after 30 min w/NADPH” value in data set [9] worked out at 14.6%. The “Liver Microsome Stability (Multiple Species): Monkey - % Remaining after 30 min w/NADPH” value in [10] was found to be 3.2%.

Regarding `Cc1ccc(N2CCC[C@@H]2c2csc(NC(=O)c3cccn3CC3CCOCC3)n2)cc1` [Compound C53, (R)-1-((tetrahydro-2H-pyran-4-yl)methyl)-N-(4-(1-(p-tolyl)pyrrolidin-2-yl)thiazol-2-yl)-1H-pyrrole-2-carboxamide], the IC50 came to 14.7 nM in data set [1] (mean), 266 nM in data set [2] (mean), 38.7 nM in [3] (mean) and 71.9 nM in [4] (mean). In addition, in data set [2] (setting [11]), the “24 hr Dox Inducible TNFaFLGluc 293FRT/TO: TNF/PD1” value is reported as 18.2. In addition, in data set [4] (setting [11]), the “24 hr Dox Inducible IL2FLGluc 293FRT/TO: IL2/PD1” value came out at 4.9. The EC50 is 1900 nM in [5] and > 25000 nM in data set [6]. For the same compound, the “Liver Microsome Stability (Multiple Species): Rat - % Remaining after 30 min w/NADPH” value in data set [7] came out at 60.2%. Further, the “Liver Microsome Stability (Multiple Species): Mouse - % Remaining after 30 min w/NADPH” value in data set [8] was found to be 62.6%. For the same compound, the “Liver Microsome Stability (Multiple Species): Human - % Remaining after 30 min w/NADPH” value in data set [9] amounted to 63.8%. For the same compound, in data set [10], the “Liver Microsome Stability (Multiple Species): Monkey - % Remaining after 30 min w/NADPH” value is recorded as 23.6%.

On to `O=C(Nc1nc([C@H]2CCN(c3ccccn3)C2)cs1)c1cccn1Cc1ccncc1` [Compound E44, (S)-N-(4-(1-(pyridin-2-yl)pyrrolidin-3-yl)thiazol-2-yl)-1-(pyridin-4-ylmethyl)-1H-pyrrole-2-carboxamide], for which the IC50 is 453 nM in data set [1] (mean), 11600 nM in [2] (mean), 1320 nM in [3] (mean) and 2720 nM in data set [4] (mean). For the same compound, the “24 hr Dox Inducible TNFaFLGluc 293FRT/TO: TNF/PD1” value in data set [2] (setting [11]) was 25.5. Moreover, the “24 hr Dox Inducible IL2FLGluc 293FRT/TO: IL2/PD1” value in data set [4] (setting [11]) is 6. Also, the EC50 is 22900 nM in data set [5] and > 25000 nM in data set [6]. For the same compound, the “Liver Microsome Stability (Multiple Species): Rat - % Remaining after 30 min w/NADPH” value in data set [7] came out at 0.72%. In data set [8], the “Liver Microsome Stability (Multiple Species): Mouse - % Remaining after 30 min w/NADPH” value came to 0.24%. In addition, in data set [9], the “Liver Microsome Stability (Multiple Species): Human - % Remaining after 30 min w/NADPH” value is listed as 0.5%. Besides, in data set [10], the “Liver Microsome Stability (Multiple Species): Monkey - % Remaining after 30 min w/NADPH” value came out at 0.59%.

On to `O=C(Nc1nc([C@H]2CCCN2c2ccccc2)cs1)c1cccn1Cc1ccccc1` [Compound C5, (R)-1-benzyl-N-(4-(1-phenylpyrrolidin-2-yl)thiazol-2-yl)-1H-pyrrole-2-carboxamide], for which the IC50 in [1] (mean) was 2200 nM; in data set [2] (mean), > 25000 nM; in data set [3] (mean), 2420 nM; in data set [4] (mean), 2880 nM. The “24 hr Dox Inducible TNFaFLGluc 293FRT/TO: TNF/PD1” value in data set [2] (setting [11]) is >11.4. Moreover, the “24 hr Dox Inducible IL2FLGluc 293FRT/TO: IL2/PD1” value in data set [4] (setting [11]) came to 1.3. In addition, the EC50 in data set [5] and in [6] was > 25000 nM each time. The “Liver Microsome Stability (Multiple Species): Rat - % Remaining after 30 min w/NADPH” value in data set [7] stood at 67.5%. The “Liver Microsome Stability (Multiple Species): Mouse - % Remaining after 30 min w/NADPH” value in data set [8] was found to be 65.6%. In addition, the “Liver Microsome Stability (Multiple Species): Human - % Remaining after 30 min w/NADPH” value in data set [9] is recorded as 87.9%. The “Liver Microsome Stability (Multiple Species): Monkey - % Remaining after 30 min w/NADPH” value in [10] came to 63%.

Regarding `O=C(Nc1ccc(N2CCC[C@@H]2c2csc(NC(=O)c3cccn3Cc3ccnc(F)c3)n2)cc1)O[C@@H]1CCOC1` [Compound A171, (R)-tetrahydrofuran-3-yl (4-((R)-2-(2-(1-((2-fluoropyridin-4-yl)methyl)-1H-pyrrole-2-carboxamido)thiazol-4-yl)pyrrolidin-1-yl)phenyl)carbamate], the IC50 in data set [1] was found to be 3.57 nM; in data set [2] it was 71.9 nM; in [3], 4.33 nM; in data set [4], 6.54 nM. Also, the “24 hr Dox Inducible TNFaFLGluc 293FRT/TO: TNF/PD1” value in data set [2] is on record as 20.1. Also, the “24 hr Dox Inducible IL2FLGluc 293FRT/TO: IL2/PD1” value in data set [4] is reported as 1.8. For the same compound, the EC50 was 159 nM in data set [5] and > 25000 nM in data set [6]. The “Liver Microsome Stability (Multiple Species): Rat - % Remaining after 30 min w/NADPH” value in data set [7] amounted to 16%. In addition, the “Liver Microsome Stability (Multiple Species): Mouse - % Remaining after 30 min w/NADPH” value in data set [8] was determined as 17.3%. In addition, in data set [9], the “Liver Microsome Stability (Multiple Species): Human - % Remaining after 30 min w/NADPH” value worked out at 36.8%. In addition, the “Liver Microsome Stability (Multiple Species): Monkey - % Remaining after 30 min w/NADPH” value in data set [10] is 28.5%.

`CC(=O)N1CCC(n2cnc(/C=C/c3csc(NC(=O)c4cccn4Cc4ccnc(F)c4)n3)c2)CC1` [Compound B91, (E)-N-(4-(2-(1-(1-acetylpiperidin-4-yl)-1H-imidazol-4-yl)vinyl)thiazol-2-yl)-1-((2-fluoropyridin-4-yl)methyl)-1H-pyrrole-2-carboxamide]: the IC50 in [1] is 6050 nM; in data set [2], > 25000 nM; in data set [3] it was > 25000 nM; in data set [4] it was > 25000 nM. Further, in data set [2], the “24 hr Dox Inducible TNFaFLGluc 293FRT/TO: TNF/PD1” value is listed as >4.13. Also, the “24 hr Dox Inducible IL2FLGluc 293FRT/TO: IL2/PD1” value in data set [4] is on record as >4.1. In addition, the EC50 in [5] and in [6] was > 25000 nM each time. In addition, the “Liver Microsome Stability (Multiple Species): Rat - % Remaining after 30 min w/NADPH” value in data set [7] is reported as 44.2%. In addition, the “Liver Microsome Stability (Multiple Species): Mouse - % Remaining after 30 min w/NADPH” value in [8] is 33.9%. The “Liver Microsome Stability (Multiple Species): Human - % Remaining after 30 min w/NADPH” value in data set [9] is 0.22%. Further, the “Liver Microsome Stability (Multiple Species): Monkey - % Remaining after 30 min w/NADPH” value in data set [10] came out at 0.24%.
